Assay results reported in ChEMBL document CHEMBL4483862, “Open-source discovery of chemical leads for next-generation chemoprotective antimalarials” (2018).

System: Plasmodium berghei
Test: Luciferase/luciferin-expressing antifolate-resistant parasites were used to infect a culture of HepG2 cells that were pre-incubated with compounds. Infected hepatocytes emit light due to the luciferase reaction. Assay results are presented as the percent inhibition of light emission compared to control. […]
Assay type: functional
Details: sporozoite; for IC90: read-out: LUCIFERASE INFECTION ASSAY - IC90
[1] = read-out: LUCIFERASE INFECTION ASSAY - IC50

Structure (SMILES)	IC90	further results
CC1CCc2[nH]c3ccc(C(=O)NCc4ccccc4CN(C)C)cc3c2C1 (stereo not drawn)	> 10 µM	IC50 (HEPG2TOX_HILL_SLOPE 12.7, HEPG2TOX_R_SQUARED 0.279, PBLUC_HILL_SLOPE 14.5, PBLUC_R_SQUARED 0.467, read-out: LUCIFERASE INFECTION ASSAY - IC50): 9.09 µM
CC(=O)Nc1cccc(-c2cn3c(-c4ccc(C#N)cc4)cnc3cn2)c1	> 9.34 µM	IC50 (PBLUC_HILL_SLOPE 15, PBLUC_R_SQUARED 0.251, read-out: LUCIFERASE INFECTION ASSAY - IC50): 8.2 µM
COc1cc(N2C(=O)C=CC2=O)cc(OC)c1OC	> 12.5 µM	IC50 (HEPG2TOX_HILL_SLOPE 7.92, HEPG2TOX_R_SQUARED 0.512, PBLUC_HILL_SLOPE 9.52, PBLUC_R_SQUARED 0.0663, read-out: LUCIFERASE INFECTION ASSAY - IC50): > 12.5 µM
CCOC(=O)c1ccc(N2CCCCC2)c(NC(=O)c2sc3ccccc3c2Cl)c1	> 7.45 µM	IC50 (FFLUC_HILL_SLOPE 35, FFLUC_R_SQUARED 0.23, read-out: LUCIFERASE INFECTION ASSAY - IC50): > 7.45 µM
CC(C)(C)c1ccc(-c2cc3[nH]c(-c4ccccc4)cc(=O)n3n2)cc1	3.76 µM	IC50 (HEPG2TOX_HILL_SLOPE 2.71, HEPG2TOX_R_SQUARED 0.618, PBLUC_HILL_SLOPE 3.36, PBLUC_R_SQUARED 0.487, read-out: LUCIFERASE INFECTION ASSAY - IC50): 1.95 µM
COc1cccc(C2CNC(c3ccc(Cl)cc3)c3[nH]c4ccccc4c32)c1OC (stereo not drawn)	5.44 µM	IC50 (PBLUC_HILL_SLOPE 2.02, PBLUC_R_SQUARED 0.709, read-out: LUCIFERASE INFECTION ASSAY - IC50): 1.84 µM
Cc1ccc(-c2csc(NCSc3cccc4cccnc34)n2)cc1	> 10 µM	IC50 [1]: > 10 µM
O=C(NC(=O)c1csnn1)Nc1cc(C(F)(F)F)cc(C(F)(F)F)c1	2.08 µM	IC50 (FFLUC_HILL_SLOPE 15.9, FFLUC_R_SQUARED 0.485, HEPG2TOX_HILL_SLOPE 1.3, HEPG2TOX_R_SQUARED 0.92, PBLUC_HILL_SLOPE 2.07, PBLUC_R_SQUARED 0.679, read-out: LUCIFERASE INFECTION ASSAY - IC50): 0.72 µM
CC(N)C(=O)NCC(F)(F)F (stereo not drawn)	> 10 µM	IC50 [1]: > 10 µM
O=C1NC(c2ccccc2)=C(c2nc3ccccc3s2)C(c2ccc(O)cc2)N1 (stereo not drawn)	> 10 µM	IC50 (FFLUC_HILL_SLOPE 17.5, FFLUC_R_SQUARED 0.699, PBLUC_HILL_SLOPE 3.26, 2.75, PBLUC_R_SQUARED 0.346, 0.719, read-out: LUCIFERASE INFECTION ASSAY - IC50): 5.94 µM
CCOc1cccc(-c2cn3c(-c4ccc(C(=O)N(C)C)cc4)cnc3cn2)c1	3.39 µM	IC50 (PBLUC_HILL_SLOPE 14.8, PBLUC_R_SQUARED 0.204, read-out: LUCIFERASE INFECTION ASSAY - IC50): 2.92 µM
O=C1C=CC(=O)N1c1ccccc1OC(F)(F)F	> 12.8 µM	IC50 (FFLUC_HILL_SLOPE 21.4, FFLUC_R_SQUARED 0.595, PBLUC_HILL_SLOPE 3.16, PBLUC_R_SQUARED 0.111, read-out: LUCIFERASE INFECTION ASSAY - IC50): 8.21 µM
COc1ccc(-c2cc3ncnc(NCc4ccc(S(=O)(=O)N5CCCC5)s4)c3s2)cc1	4.46 µM	IC50 [1]: 3.52 µM
Cn1nc(C(C)(C)C)cc1NC(=O)Nc1cc(Cl)cc(Cl)c1	> 9.67 µM	IC50 [1]: > 9.67 µM
O=C(c1nn(-c2ccccc2)c(=O)c2ccccc12)N(CCCN1CCOCC1)Cc1cccs1	> 10 µM	IC50 (PBLUC_HILL_SLOPE 4.06, PBLUC_R_SQUARED 0.124, read-out: LUCIFERASE INFECTION ASSAY - IC50): 8.65 µM
O=C(Nc1cc(C(F)(F)F)cc(C(F)(F)F)c1)Nc1cc(C(F)(F)F)cc(C(F)(F)F)c1	> 6.81 µM	IC50 [1]: > 6.81 µM
CC(=O)Nc1cccc(Nc2cc3c(cn2)ncn3CC2CC2)c1	> 10 µM	IC50 (HEPG2TOX_HILL_SLOPE 2.64, HEPG2TOX_R_SQUARED 0.966, PBLUC_HILL_SLOPE 2.21, PBLUC_R_SQUARED 0.507, read-out: LUCIFERASE INFECTION ASSAY - IC50): 6.65 µM
Cc1ccc2nc(NC(=O)C(C)Oc3ccccc3)c(C(=O)NC3CCCC3)n2c1 (stereo not drawn)	6.95 µM	IC50 (PBLUC_HILL_SLOPE 4.38, PBLUC_R_SQUARED 0.362, read-out: LUCIFERASE INFECTION ASSAY - IC50): 4.21 µM
O=C(CN1CC=C(c2c[nH]c3ccccc23)CC1)Nc1cccc(F)c1	> 10 µM	IC50 (PBLUC_HILL_SLOPE 2.56, PBLUC_R_SQUARED 0.252, read-out: LUCIFERASE INFECTION ASSAY - IC50): 6.56 µM
C/C(=N\Nc1nc2ccccc2[nH]1)c1ccc(Cl)s1	> 10 µM	IC50 (PBLUC_HILL_SLOPE 13.6, PBLUC_R_SQUARED 0.0664, read-out: LUCIFERASE INFECTION ASSAY - IC50): 9.32 µM

Structure (SMILES)	IC90	further results
O=C(Nc1cccc(Cl)c1)Nc1ccc2nc(-c3ccc(F)c(Cl)c3)nn2c1	7.37 µM	IC50 (HEPG2TOX_HILL_SLOPE 11.5, HEPG2TOX_R_SQUARED 0.414, PBLUC_HILL_SLOPE 109, PBLUC_R_SQUARED 0.131, read-out: LUCIFERASE INFECTION ASSAY - IC50): 7.23 µM
CCOC(=O)c1c(NC(=O)CN(CC(C)C)C2CC2)sc(C(=O)Nc2ccc(C)cc2C)c1C	5.26 µM	IC50 [1]: 4.24 µM
CC(=O)Nc1ccc(Nc2cc3[nH]c(-c4cccc(F)c4)cc3cn2)cc1	9.16 µM	IC50 (PBLUC_HILL_SLOPE 3.2, PBLUC_R_SQUARED 0.299, read-out: LUCIFERASE INFECTION ASSAY - IC50): 4.6 µM
C=C(CS(=O)(=O)c1ccccc1)C(=O)Nc1ccc(C(F)(F)F)cc1	7.91 µM	IC50 (HEPG2TOX_HILL_SLOPE 10, HEPG2TOX_R_SQUARED 0.961, PBLUC_HILL_SLOPE 2.89, PBLUC_R_SQUARED 0.554, read-out: LUCIFERASE INFECTION ASSAY - IC50): 3.7 µM
Fc1ccc(Oc2ccc(CNc3ncnc4nc[nH]c34)cn2)cc1	> 10 µM	IC50 (HEPG2TOX_HILL_SLOPE 3.2, HEPG2TOX_R_SQUARED 0.895, PBLUC_HILL_SLOPE 3.02, PBLUC_R_SQUARED 0.0659, read-out: LUCIFERASE INFECTION ASSAY - IC50): 5.84 µM
O=C(Nc1ccc(N2CCCCCC2)cc1)c1ccc[nH]1	2.88 µM	IC50 (PBLUC_HILL_SLOPE 1.36, PBLUC_R_SQUARED 0.768, read-out: LUCIFERASE INFECTION ASSAY - IC50): 0.569 µM
Cc1ccc2nc3ccccc3c(N3CCN(C(=O)c4ccccc4)CC3)c2c1	3.42 µM	IC50 (PBLUC_HILL_SLOPE 1, PBLUC_R_SQUARED 0.729, read-out: LUCIFERASE INFECTION ASSAY - IC50): 0.384 µM
CCn1nc(C)c(Sc2nccn2C)c1C	> 14 µM	IC50 (HEPG2TOX_HILL_SLOPE 10.5, HEPG2TOX_R_SQUARED 0.481, PBLUC_HILL_SLOPE 1.71, PBLUC_R_SQUARED 0.393, read-out: LUCIFERASE INFECTION ASSAY - IC50): 4.63 µM
Cc1ccc(C)c(-c2nn(C(C)C(=O)Nc3cc(C)on3)c(=O)c3ccccc23)c1 (stereo not drawn)	3.83 µM	IC50 (HEPG2TOX_HILL_SLOPE 5.97, HEPG2TOX_R_SQUARED 0.339, PBLUC_HILL_SLOPE 3.63, PBLUC_R_SQUARED 0.528, read-out: LUCIFERASE INFECTION ASSAY - IC50): 2.09 µM
COc1ccc(OC)c(CCNc2nc3cnc(-c4ccc5c(c4)OCO5)cc3n2C)c1	2.5 µM	IC50 (HEPG2TOX_HILL_SLOPE 2.94, HEPG2TOX_R_SQUARED 0.93, PBLUC_HILL_SLOPE 1.47, PBLUC_R_SQUARED 0.742, read-out: LUCIFERASE INFECTION ASSAY - IC50): 0.558 µM
O=C(Nc1ccc(N2CCCC2)cn1)C1CC=CCC1 (stereo not drawn)	0.636 µM	IC50 (FFLUC_HILL_SLOPE 1.03, FFLUC_R_SQUARED 0.671, HEPG2TOX_HILL_SLOPE 1.03, HEPG2TOX_R_SQUARED 0.932, PBLUC_HILL_SLOPE 1.27, PBLUC_R_SQUARED 0.726, read-out: LUCIFERASE INFECTION ASSAY - IC50): 0.112 µM
Cc1ccc(C(=O)C(/C=N/N)=N/Nc2cc(Cl)cc(Cl)c2)cc1	> 9.45 µM	IC50 [1]: 9.09 µM
CCOC(=O)c1cc(C#N)c(Sc2ccccn2)nc1C(F)(F)F	> 9.34 µM	IC50 [1]: > 9.34 µM
COc1cccc(NC(=O)c2cccc(C3(CNc4cccc(OC(F)(F)F)c4)CC3)c2)c1	> 10 µM	IC50 (PBLUC_HILL_SLOPE 3.47, PBLUC_R_SQUARED 0.3, read-out: LUCIFERASE INFECTION ASSAY - IC50): 9.2 µM
COC(=O)c1ccc(CNC(=O)NCCN2c3ccccc3CCC2C)cc1 (stereo not drawn)	3.88 µM	IC50 (HEPG2TOX_HILL_SLOPE 2.63, HEPG2TOX_R_SQUARED 0.63, PBLUC_HILL_SLOPE 12, PBLUC_R_SQUARED 0.668, read-out: LUCIFERASE INFECTION ASSAY - IC50): 3.23 µM
Cc1cccc(-c2noc(CNC(=O)Cc3ccc(-c4ccccc4)cc3)n2)c1	3.18 µM	IC50 (FFLUC_HILL_SLOPE 13.2, FFLUC_R_SQUARED 0.46, HEPG2TOX_HILL_SLOPE 2.91, HEPG2TOX_R_SQUARED 0.962, PBLUC_HILL_SLOPE 21.5, PBLUC_R_SQUARED 0.134, read-out: LUCIFERASE INFECTION ASSAY - IC50): 2.87 µM
COc1cccc(Cn2nc(C(=O)NC3CC3)c3c2CCN(Cc2cc4c(cc2Cl)OCO4)C3)c1	> 6.67 µM	IC50 (PBLUC_HILL_SLOPE 2.62, PBLUC_R_SQUARED 0.537, read-out: LUCIFERASE INFECTION ASSAY - IC50): 3.5 µM
CCOC(=O)c1sc2cccc(F)c2c1CSc1nc2sccc2c(=O)n1C	9.27 µM	IC50 [1]: 4.11 µM
CC(C)C(CNc1nc(-c2ccsc2)nc2ccccc12)N1CCN(C)CC1 (stereo not drawn)	> 10 µM	IC50 (HEPG2TOX_HILL_SLOPE 10.4, HEPG2TOX_R_SQUARED 0.591, PBLUC_HILL_SLOPE 1.6, PBLUC_R_SQUARED 0.533, read-out: LUCIFERASE INFECTION ASSAY - IC50): 2.79 µM
